# Assay results from US20150157682A1, “VALERIAN EXTRACTS AND USES THEREOF” (priority 2012, published 2015).
# Target: benzodiazepine receptors (3H-flunitrazepam labelled binding sites)
# Test: 3H-flunitrazepam competition binding assay, crude synaptosomal membranes of rat frontal cortex
# Conditions: 1 nM 3H-flunitrazepam
# Experimental: For the binding experiment male RjHan:WI rats (Janvier, Le Genest-Saint-Isle, France) were used. […] The animals were housed in groups of 5 in Macrolon IV cages.
# For the ^3H-GABA binding assay tissue (dissected rat frontal cortex) was homogenized in 50 mM Tris-HCl buffer pH 7.4 containing 120 mM NaCl, 5 mM KCl, 2 mM CaCl2 and 1 mM MgCl2; for ^3H-flunitrazepam it was homogenized in 50 mM Tris-HCl buffer pH 7.4 containing 1 mM EGTA, 10 mM EDTA and 3 mM MgCl2, centrifuged (50.000 g, 15 min) and washed twice with the corresponding buffer. The resulting pellet was resuspended with buffer. […] Specific binding was calculated by subtracting non-specific binding—defined as that seen in the presence of 1 μM unlabelled GABA or 1 μM diazepam or chlordiazepoxide—from the total binding obtained with radioligand alone. In parallel VE-1, VE-2 and AVA were used for all binding assays. The incubation was terminated by addition of ice-cold buffer and rapid filtration through glass fibre filters. The filters were washed, dried, a scintillation cocktail was added, and radioactivity was counted using a β-counter (Beckman Coulter, Germany).
smiles,measurement,value
"CN1C(=O)CN=C(c2ccccc2)c2cc(Cl)ccc21 [Diazepam, diazepam]",EC50,400 ± 50 nM
